Results taken from publication PMC9606955, “In Vitro Activity of Essential Oils Distilled from Colombian Plants against Candida auris and Other Candida Species with Different Antifungal Susceptibility Profiles” (Molecules, 2022).
≈ marks a conversion by molar mass, not a printed value.

Experiments:
[1] = test system: C. auris; assay: MIC, CLSI M27 broth microdilution, several C. auris strains together; type: cell-based, Candida auris; conditions: C. auris Ca 41, Ca 45 and Ca 46 together
Text: The fungal strains used in this study were C. albicans ATCC 10231, C. albicans ATCC 64550, C. parapsilosis ATCC 22019, C. tropicalis ATCC 750, C. tropicalis ATCC 200956 (resistant to azoles and AMB), C. glabrata LMDM 34 (resistant to echinocandins), C. metapsilosis MUM 15.12, C. orthopsilosis MUM 17.13, C. lusitaniae MUM 17.08, C. krusei ATCC 6258 (Issatchenkia orientalis ATCC 6258), and C. auris CDC B11903. Additionally, nine clinical isolates were included: C. parapsilosis Synlab 406 (FLC-resistant) and eight C. auris isolates identified by MALDI-TOF MS (Bruker Daltonics, Bremen, Germany) according to Zhao et al.. These yeasts were cultured on Sabouraud Dextrose Agar (SDA; Sigma-Aldrich, St. Louis, MO, USA) for 24 h at 35 °C.
Antifungal susceptibility testing was performed according to Clinical and Laboratory Standards Institute M27, 4th Edition (CLSI standard M27, 4th Edition). […] MICs were visually determined at the lowest concentration that produced visual inhibition compared to the growth control. […] The results were expressed as geometric means (GM) and ranges. As an antifungal susceptibility testing control, the activity of ITC and AMB against the reference strains C. krusei ATCC 6258 and C. parapsilosis ATCC 22019 was evaluated in all experiments following the CLSI standard M27, 4th Edition. […]

[2] = test system: C. orthopsilosis MUM 17.13; assay: MIC, CLSI M27 broth microdilution; type: cell-based, Candida orthopsilosis; conditions: C. orthopsilosis MUM 17.13, antifungal drugs; for MIC: Lodderomyces orthopsilosis, MUM17.13, geometric mean, read-out: MIC GM
Method in brief: (§1)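 CLSI M27 (4th ed.) broth microdilution, modified for essential oils and terpenes: yeasts grown on SDA 24 h at 35 °C, inoculum 2.5 × 10^3 CFU/mL in RPMI 1640-MOPS, two-fold dilutions at 0.5–256 µg/mL final. Visual MIC after 24 h at 35 °C; ≥3 runs in duplicate, reported as geometric mean and range.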

[3] = test system: C. auris Ca 46; assay: MIC, CLSI M27 broth microdilution; type: cell-based, Candida auris; conditions: C. auris Ca 46; for MIC Range / MIC: antifungal drugs; for MIC: Candidozyma auris, CA46, geometric mean, read-out: MIC GM
Method in brief: as §1

[4] = test system: C. auris Ca 17; assay: MIC, CLSI M27 broth microdilution; type: cell-based, Candida auris; conditions: C. auris Ca 17; for MIC Range / MIC: antifungal drugs; for MIC: Candidozyma auris, CA17, geometric mean, read-out: MIC GM
Method in brief: as §1

[5] = test system: C. auris Ca 9; assay: MIC, CLSI M27 broth microdilution; type: cell-based, Candida auris; conditions: C. auris Ca 9, antifungal drugs; for MIC: Candidozyma auris, CA9, geometric mean, read-out: MIC GM
Method in brief: as §1

| Structure (SMILES) | MIC Range [1] [µg/mL] | MIC Range [2] [µg/mL] | MIC [2] [µg/mL] | susceptibility category ([3]; CDC breakpoints) | MIC Range [3] [µg/mL] | MIC [3] [µg/mL] | MIC Range [4] [µg/mL] | MIC [4] [µg/mL] | MIC Range [5] [µg/mL] | MIC [5] [µg/mL] | susceptibility category ([4]; CDC breakpoints) |
| --- | --- | --- | --- | --- | --- | --- | --- | --- | --- | --- | --- |
| C[C@@H]1[C@H](O)[C@@H](C)/C=C/C=C/C=C/C=C/C=C/C=C/C=C/[C@H](O[C@@H]2O[C@H](C)[C@@H](O)[C@H](N)[C@@H]2O)C[C@@H]2O[C@](O)(C[C@@H](O)C[C@@H](O)[C@H](O)CC[C@@H](O)C[C@@H](O)CC(=O)O[C@H]1C)C[C@H](O)[C@H]2C(=O)O [AMB, amphotericin B] | 1 to 2 | <0.03 | < 0.03 | AMB-resistant | 1 to 2 | 1.4 (≈ 1.52 µM) | 0.06 to 0.25 | 0.15 (≈ 0.162 µM) | 0.12 to 0.5 | 0.25 (≈ 0.271 µM) | – |
| OC(Cn1cncn1)(Cn1cncn1)c1ccc(F)cc1F [FLC, fluconazole] | – | 1 (≈ 3.27 µM) | 1 (≈ 3.27 µM) | – | 2 to 4 | 2.8 (≈ 9.14 µM) | 32 (≈ 104 µM) | 32 (≈ 104 µM) | 4 (≈ 13.1 µM) | 4 (≈ 13.1 µM) | FLC-resistant |
